# Source: patent US6407248B1, “α-unsaturated amines, their production and use” (Takeda Chemical Industries, Ltd., priority 1987, dated 2002)
# Like-named read-outs stand apart in the source and are kept apart here.
# Test system: Brown Planthoppers (Nilaparvata lugens)
# Assay: Effect against brown planthoppers (foliar spray on rice seedlings)
# Assay type: in vivo
# Conditions: for mortality at 500 µg/mL: Nilaparvata lugens, foliar, 168 h, read-out: % Mortality after 7 days
# Experimental: Effect Against Brown Planthoppers (Nilaparvata lugens)
# An emulsifiable concentrate of the compound of the invention, prepared in the same manner as Example 112 below, was diluted with water to a concentration of 500 ppm and sprayed over the stems and leaves of rice seedlings in the 2-leaf stage at the rate of 10 ml per paper pot. Water was put in test tubes and the treated rice seedlings were placed therein. Then, 10 brown planthopper larvae were released in each tube, which was then capped with an aluminum cap. The test tubes were maintained in an incubator at 25° C. and the dead insects were counted 7 days after release. The % mortality was calculated using the following formula. [formula]
# [1] = emulsifiable concentrate diluted with water to 500 ppm, sprayed on rice seedlings (2-leaf stage), 10 ml per paper pot, 10 larvae per tube, 25° C., dead insects counted 7 days after release
SMILES,mortality at 500 µg/mL [%],% Mortality after 7 days [1] [%],other results
"CNC(=C[N+](=O)[O-])NCc1cccnc1 [Compound 3, 1-Methylamino-1-(3-pyridylmethyl)amino-2-nitroethylene]",100,,
"CCNC(=C[N+](=O)[O-])NCc1cccnc1 [Compound 4, 1-Ethylamino-1-(3-pyridylmethyl)amino-2-nitroethylene]",100,,
"C=CCNC(=C[N+](=O)[O-])NCc1cccnc1 [Compound 7, 1-Allylamino-1-(3-pyridylmethyl)amino-2-nitroethylene]",,,mortality at 500 µg/mL [1]: 100%
"CN(C)CCNC(=C[N+](=O)[O-])NCc1cccnc1 [Compound 12, 1-(2-Dimethylaminoethyl)amino-1-(3-pyridylmethyl)amino-2-nitroethylene]",,,mortality at 500 µg/mL [1]: 100%
"COCCNC(=C[N+](=O)[O-])NCc1cccnc1 [Compound 14, 1-(2-Methoxyethyl)amino-1-(3-pyridylmetyl)amino-2-nitroethylene]",,100,
"C[Si](C)(C)CNC(=C[N+](=O)[O-])NCc1cccnc1 [Compound 17, 1-(3-Pyridylmethyl)amino-1-(trimethylsilylmethyl)amino-2-nitroethylene]",100,,
"NNC(=C[N+](=O)[O-])NCc1cccnc1 [Compound 18, 1-Hydrazino-1-(3-pyridylmethyl)amino-2-nitroethylene]",100,,
"CN(C)C(=C[N+](=O)[O-])NCc1cccnc1 [Compound 19, 1-Dimethylamino-1-(3-pyridylmethyl)amino-2-nitroethylene]",100,,
"O=[N+]([O-])C=C(NCc1cccnc1)N1CCCC1 [Compound 20, 1-(3-Pyridylmethyl)amino-1-pyrrolidino-2-nitroethylene]",,,mortality at 500 µg/mL [1]: 100%
"CN(C)NC(=C[N+](=O)[O-])NCc1cccnc1 [Compound 24, 1-(2,2-Dimethyl-1-hydrazino)-1-(3-pyridylmethyl)amino-2-nitroethylene]",,100,
"CN(Cc1cccnc1)C(N)=C[N+](=O)[O-] [Compound 25, 1-Amino-1-(N-methyl-N-3-pyridylmethyl)amino-2-nitroethylene]",,100,
"CNC(=C[N+](=O)[O-])N(C)Cc1cccnc1 [Compound 26, 1-Methylamino-1-(N-methyl-N-3-pyridylmethyl)amino-2-nitroethylene]",,100,
"CNC(=C[N+](=O)[O-])NCc1ccc(Cl)nc1 [Compound 28, 1-(6-Chloro-3-pyridylmethyl)amino-1-methylamino-2-nitroethylene]",100,,
"CNC(=C[N+](=O)[O-])N(C)Cc1ccc(Cl)nc1 [Compound 29, 1-[N-(6-Chloro-3-pyridylmethyl)-N-methyl]amino-1-methylamino-2-nitroethylene]",,100,
"CCN(Cc1cccnc1)C(=C[N+](=O)[O-])NC [Compound 31, 1-[N-Ethyl-N-(3-pyridylmethyl)]amino-1-methylamino-2-nitroethylene]",,100,
"CNC(=C[N+](=O)[O-])N(Cc1cccnc1)CC(OC)OC [Compound 32, 1-[N-(2-Dimethoxyethyl)-N-(3-pyridylmethyl)]amino-1-methylamino-2-nitroethylene]",,100,
"CCNC(=C[N+](=O)[O-])N(C)Cc1cccnc1 [Compound 33, 1-Ethylamino-1-[N-methyl-N-(3-pyridylmethy)]amino-2-nitroethylene]",,100,
"CCCCNC(=C[N+](=O)[O-])N(C)Cc1cccnc1 [Compound 34, 1-n-Butylamino-1-[N-methyl-N-(3-pyridylmethyl)]amino-2-nitroethylene]",,100,
"CNC(=C[N+](=O)[O-])N(CCOC)Cc1cccnc1 [Compound 35, 1-Methyl-amino-1-[N-(2-methoxyethyl)-N-(3-pyridylmethyl)]amino-2-nitroethylene]",,100,
"CC(C)NC(=C[N+](=O)[O-])N(C)Cc1cccnc1 [Compound 37, 1-iso-Propylamino-1-[N-methyl-N-(3-pyridylmethyl)]-amino-2-nitroethylene]",,100,
"CN(Cc1cccnc1)C(=C[N+](=O)[O-])NCc1ccccc1 [Compound 38, 1-Benzylamino-1-[N-methyl-N-(3-pyridylmethyl)l]amino-2-nitroethylene]",,100,
"CNC(=C[N+](=O)[O-])N(C)C(C)c1cccnc1 (stereo not shown) [Compound 40, 1-Metylamino-1-[N-methyl-N-[1-(3-pyridyl)ethyl]]amino-2-nitroethylene]",,100,
"CNC(=C[N+](=O)[O-])N(Cc1cccnc1)N(C)C [Compound 41, 1-[2,2-Dimethyl-1-(3-pyridylmethyl)]hydrazino-1-methylamino-2-nitroethylene]",,100,

SMILES,mortality at 500 µg/mL [%],% Mortality after 7 days [1] [%],other results
"CCCN(Cc1cccnc1)C(=C[N+](=O)[O-])NC [Compound 42, 1-Methylamino-1-[N-(n-propyl)-N-(3-pyridylmethyl)]amino-2-nitroethylene]",,100,
CCCCN(C(=C[N+](=O)[O-])NC)c1cccnc1 [Compound 43],,100,
"CNC(=C[N+](=O)[O-])N(Cc1ccccc1)Cc1cccnc1 [Compound 44, 1-[N-Benzyl-N-(3-pyridylmethyl)]amino-1-methylamino-2-nitroethylene]",,100,
"CN(Cc1ccc(Cl)nc1)C(N)=C[N+](=O)[O-] [Compound 45, 1-Amino-1-[N-(6-chloro-3-pyridylmethyl)-N-methyl]-amino-2-nitroethylene]",,100,
"CN(C)C(=C[N+](=O)[O-])NCc1ccc(Cl)nc1 [Compound 46, 1-(6-Chloro-3-pyridylmethyl)amino-1-dimethylamino-2-nitroethylene]",100,,
"CNC(=C[N+](=O)[O-])NCc1ccc(Cl)nc1Cl [Compound 47, 1-(2,6-Dichloro-3-pyridylmethyl)amino-1-methylamino-2-nitroethylene]",100,,
"CC(C)N(Cc1ccc(Cl)nc1)C(N)=C[N+](=O)[O-] [Compound 49, 1-Amino-1-(N-(6-chloro-3-pyridylmethyl)-N-i-propyl]amino-2-nitroethylene]",100,,
"CCN(C)C(=C[N+](=O)[O-])NCc1ccc(Cl)nc1 [Compound 50, 1-(6-Chloro-3-pyridylmethyl)amino-1-(N-ethyl-N-methyl)amino-2-nitroethylene]",100,,
"NNC(=C[N+](=O)[O-])NCc1ccc(Cl)nc1 [Compound 51, 1-(6-Chloro-3-pyridylmethyl)amino-1-hydrazino-2-nitroethylene]",100,,
"CN(C)NC(=C[N+](=O)[O-])NCc1ccc(Cl)nc1 [Compound 52, 1-(6-Chloro-3-pyridylmethyl)amino-1-(2,2-dimethyl-1-hydrazino)-2-nitroethylene]",100,,
"CNC(=C[N+](=O)[O-])N(C)CCc1cccnc1 [Compound 55, 1-Methylamino-1-[N-methyl-N-[2-(3-pyridyl)ethyl]-amino]-2-nitroethylene]",,,mortality at 500 µg/mL [1]: 100%
"CN(Cc1cccnc1)C(=C[N+](=O)[O-])N(C)Cc1cccnc1 [Compound 57, 1,1-bis(N-methyl-N-3-pyridylmethyl)amino-2-nitroethylene]",,,mortality at 500 µg/mL [1]: 100%
"CN(C)C(=C[N+](=O)[O-])N(C)Cc1ccc(Cl)nc1 [Compound 58, 1-[N-(6-Chloro-3-pyridylmethyl)-N-methyl]amino-1-dimethylamino-2-nitroethylene]",100,,
"CCN(Cc1ccc(Cl)nc1)C(N)=C[N+](=O)[O-] [Compound 59, 1-Amino-1-[N-(6-chloro-3-pyridylmethyl)-N-ethyl]-amino-2-nitroethylene]",100,,
"CCN(Cc1ccc(Cl)nc1)C(=C[N+](=O)[O-])NC [Compound 60, 1-[N-(6-Chloro-3-pyridylmethyl)-N-ethyl]amino-1-methylamino-2-nitroethylene]",,100,
"CNC(=C[N+](=O)[O-])N(C)Cc1ccc(OC)nc1 [Compound 61, 1-[N-(6-Methoxy-3-pyridylmethyl)-N-methyl]amino-1-methylamino-2-nitroethylene]",,,mortality at 500 µg/mL [1]: 100%
"CNC(=C[N+](=O)[O-])N(C)Cc1ccncc1 [Compound 62, 1-Methylamino-1-[N-methyl-N-(4-pyridylmethyl)]-amino-2-nitroethylene]",,,mortality at 500 µg/mL [1]: 100%
"CNC(=C[N+](=O)[O-])N(Cc1cccnc1)OC [Compound 64, 1-[N-methoxy-N-(3-pyridylmethyl)]amino-1-methyl-amino-2-nitroethylene]",,,mortality at 500 µg/mL [1]: 100%
"CN(C=O)C(=C[N+](=O)[O-])N(C)Cc1cccnc1 [Compound 65, 1-(N-Formyl-N-methyl)amino-1-[N-methyl-N-(3-pyridyl-methyl)]amino-2-nitroethylene]",,,mortality at 500 µg/mL [1]: 100%
"COCCNC(=C[N+](=O)[O-])N(C)Cc1cccnc1 [Compound 67, 1-(2-Methoxyethyl)amino-1-[N-methyl-N-(3-pyridylmethyl)]amino-2-nitroethylene]",,,mortality at 500 µg/mL [1]: 100%
"CNC(=C[N+](=O)[O-])N(C)Cc1ccc(Cl)cc1 [Compound 68, 1-[N-(4-Chlorobenzyl)-N-methyl]amino-1-methylamino-2-nitroethylene]",,,mortality at 500 µg/mL [1]: 100%
"CNC(=C[N+](=O)[O-])NCc1ccc(Cl)cc1 [Compound 70, 1-(4-Chlorobenzyl)amino-1-methylamino-2-nitroethylene]",,,mortality at 500 µg/mL [1]: 100%
"CN(C)C(=C[N+](=O)[O-])NCc1ccc(Cl)cc1 [Compound 71, 1-(4-Chlorobenzyl)amino-1-dimethylamirxo-2-nitroethylene]",,,mortality at 500 µg/mL [1]: 100%
